≈ marks a conversion by molar mass, not a printed value.

As a reminder, the MIC is the least concentration at which growth counts as inhibited. Low values mean a more susceptible organism, high ones a less susceptible organism.

The subject of this test is M. catarrhalis A894. The test can be described thus: MIC determination by microdilution in cation-adjusted Mueller-Hinton Broth (NCCLS). The class given is cell-based. Conditions: Moraxella catarrhalis, pH 7.2-7.3. The procedure: These assays have been performed following the description given in “Methods for dilution Antimicrobial Susceptibility Tests for Bacteria that Grow Aerobically, 4th ed.; Approved standard: NCCLS Document M7-A4; National Committee for Clinical Laboratory Standards: Villanova, Pa., USA, 1997”. Minimal inhibitory concentrations (MICs; mg/l) were determined in cation-adjusted Mueller-Hinton Broth (BBL) by a microdilution method following NCCLS guidelines (National Committee for Clinical Laboratory Standards. Methods for Dilution Antimicrobial Susceptibility). The pH of the test medium was 7.2-7.3. All Example compounds were tested against several Gram-positive and Gram-negative bacteria.
Turning to `N#Cc1ccc2nccc(NC3CN(C[C@@H]4CN(c5ccc6c(c5)NC(=O)CS6)C(=O)O4)C3)c2c1` [Example 38, 4-{1-[(R)-2-oxo-3-(3-oxo-3,4-dihydro-2H-benzo[1,4]thiazin-6-yl)-oxazolidin-5-ylmethyl]-azetidin-3-ylamino}-quinoline-6-carbonitrile], the MIC was determined as 0.125 µg/mL (≈ 0.257 µM). `O=C1CSc2ccc(N3C[C@@H](CN4CC(Nc5ccnc6ccc(F)cc56)C4)OC3=O)cc2N1` [Example 39, 6-{(R)-5-[3-(6-fluoro-quinolin-4-ylamino)-azetidin-1-ylmethyl]-2-oxo-oxazolidin-3-yl}-4H-benzo[1,4]thiazin-3-one]: the lowest concentration to inhibit growth (MIC) was 0.063 µg/mL (≈ 0.131 µM).

With `COc1ccc2nccc(NC3CCN(C[C@@H]4CN(c5ccc6c(c5)NC(=O)CS6)C(=O)O4)CC3)c2n1` [Example 40, 6-{(R)-5-[4-(6-methoxy-[1,5]naphthyridin-4-ylamino)-piperidin-1-ylmethyl]-2-oxo-oxazolidin-3-yl}-4H-benzo[1,4]thiazin-3-one], the minimal inhibitory concentration (MIC) was ≤ 0.031 µg/mL. The result for `COc1ccc2nccc(NC3CCN(C[C@@H]4CN(c5ccc6c(c5)NC(=O)CS6)C(=O)O4)CC3)c2c1` [Example 41, 6-{(R)-5-[4-(6-methoxy-quinolin-4-ylamino)-piperidin-1-ylmethyl]-2-oxo-oxazolidin-3-yl}-4H-benzo[1,4]thiazin-3-one] reads 0.5 µg/mL (≈ 0.962 µM); that for `COc1ccc2nccc(NC3CN(C[C@@H]4CN(c5ccc6c(c5)OCCO6)C(=O)O4)C3)c2n1` [Example 42, (R)-3-(2,3-dihydro-benzo[1,4]dioxin-6-yl)-5-[3-(6-methoxy-[1,5]naphthyridin-4-ylamino)-azetidin-1-ylmethyl]-oxazolidin-2-one], ≤ 0.031 µg/mL. The result for `O=C1COc2ccc(N3C[C@@H](CN4CC(Nc5ccnc6ccc(F)cc56)C4)OC3=O)cc2N1` [Example 43, 6-{(R)-5-[3-(6-fluoro-quinolin-4-ylamino)-azetidin-1-ylmethyl]-2-oxo-oxazolidin-3-yl}-4H-benzo[1,4]oxazin-3-one] reads 0.25 µg/mL (≈ 0.539 µM).

Consider `COc1ccc2nccc(OC3CN(C[C@@H]4CN(c5ccc6c(c5)OCCO6)C(=O)O4)C3)c2c1` [Example 44, (R)-3-(2,3-dihydro-benzo[1,4]dioxin-6-yl)-5-[3-(6-methoxy-quinolin-4-yloxy)-azetidin-1-ylmethyl]-oxazolidin-2-one], for which the minimum inhibitory concentration (MIC) is 8 µg/mL (≈ 17.3 µM).

The record behind these values is US9505750B2, “5-aminocyclylmethyl-oxazolidin-2-one derivatives” (priority 2007, dated 2016).
